US7232837B2, “Stereoisomers with high affinity for adrenergic receptors” (McNeil-PPC, Inc., priority 1999, dated 2007)

What was measured:
Dog = experiment: Dosage which raised mean arterial pressure 10%, dog; assay type: in vivo
Sprague Dawley rats [1] = experiment: Nasal airway pressure in histamine-challenged rats
Sprague Dawley rats [2] = experiment: Nasal airway pressure in non-histamine-challenged rats; conditions: for Mean Decrease in Nasal Airway Pressure: rats, i.v., ± SEM
Rat = experiment: Dosage which raised mean arterial pressure 10%, rat; assay type: in vivo
α2 adrenergic receptors = experiment: Alpha-2 binding, 125iodoclonidine, canine brain (frontal cortex) membranes; parameters: species or system canine (mongrel dogs); conditions: canine brain membranes; for IC50: inhibition of specific p-iodoclonidine binding; for Ki: p-iodoclonidine
Procedure: BRAIN ALPHA-2 RECEPTORS: Membranes of mongrel dogs were harvested from the canine frontal cortex and prepared as described for lung except that the final membrane protein concentration was adjusted to 0.5 mg/ml.
ALPHA-2 BINDING ^125IODOCLONIDINE. […] Nonspecific binding was determined in separate incubations in the presence of 10 μM phentolamine. The final concentration of p-iodoclonidine was 44–45 pM in competition studies and between 50 pM and 10 nM in saturation experiments. Bound and free p-^125iodoclonidine were separated and the bound quantified as described above for the ICYP assays. […] BETA-2 BINDING, ^125IODOCYANOPINDOLOL (^125ICYP). […] Nonspecific binding was determined in separate incubations in the presence of 2 μM d,l-propranolol. Each experimental point was determined in triplicate. […] Incubations were terminated as described above for the α1 assays. Filters were placed into polyethylene tubes and the bound ligand was determined by gamma spectrometry (Sano et al., 1993).
All data were analyzed with the aid of microcomputer nonlinear curve fitting programs (PRISM 2.0, Graphpad Software, San Diego Calif.).
The receptors resident in each of the three membrane preparations were evaluated by standard saturation analysis following the addition of increasing concentrations of the appropriate radioligand. […] The radio ligand added for subsequent α2-displacement assays was adjusted to evaluate only the high affinity receptor. Contributions from p-iodoclonidine binding to imidazoline receptors in the α2-displacement assay were evaluated with epinephrine.
The variable, I, is the concentration of tracer added and the variable, Kd, is the equilibrium dissociation constant empirically determined for this receptor population.

| Compound | Dosage of Enantiomer which raised mean arterial pressure 10%, Dog (Dog) | nasal airway pressure, Post Drug (Sprague Dawley rats [1]; 100% dose i.v. after histamine challenge) | nasal airway pressure, % Change (Sprague Dawley rats [1]; 100% dose i.v. after histamine challenge, post drug vs post histamine) | nasal airway pressure, Post Histamine (Sprague Dawley rats [1]; after intranasal histamine 50 mM, before drug) | nasal airway pressure, Control (Sprague Dawley rats [1]; before histamine and drug) | Mean Decrease in Nasal Airway Pressure (Sprague Dawley rats [2]; 5% of the dose that increased mean arterial pressure 10%) | Mean Decrease in Nasal Airway Pressure (Sprague Dawley rats [2]; 10% of the dose that increased mean arterial pressure 10%) | Mean Decrease in Nasal Airway Pressure (Sprague Dawley rats [2]; 25% of the dose that increased mean arterial pressure 10%) | Mean Decrease in Nasal Airway Pressure (Sprague Dawley rats [2]; 50% of the dose that increased mean arterial pressure 10%) | nasal airway pressure, Post Drug (Sprague Dawley rats [2]; 100% dose i.v. (jugular vein), non-histamine-challenged rats) | nasal airway pressure, % Change (Sprague Dawley rats [2]; 100% dose i.v., non-histamine-challenged rats, post drug vs control) | nasal airway pressure, Control (Sprague Dawley rats [2]; before drug, non-histamine-challenged rats) | Dosage of Enantiomer which raised mean arterial pressure 10%, Rat (Rat) | IC50 (α2 adrenergic receptors) | Ki (α2 adrenergic receptors) |
| --- | --- | --- | --- | --- | --- | --- | --- | --- | --- | --- | --- | --- | --- | --- | --- |
| CNC[C@@H](O)c1cccc(O)c1 [(+)-Phenylephrine, (+)-phenylephrine] | 80 µg/kg | 5.5 ± 0.5 mm water | −35.2 ± 2.5% | 8.7 ± 1.1 mm water | 6.5 ± 0.4 mm water | −4.00 ± 1.2 | −2.5 ± 1.0 | −4.6 ± 1.4 | −10.2 ± 3.9 | 8 ± 0.3 mm H2O | −12.2 ± 3.1% | 9 ± 0.4 mm H2O | 24 µg |  |  |
| (+)-norpseudoephedrine |  |  |  |  |  |  |  |  |  |  |  |  |  | 5 µM | 4 µM |
| (−)-norpseudoephedrine |  |  |  |  |  |  |  |  |  |  |  |  |  | 10 µM | 8 µM |
